Tests used:
[1] = target: T1, human TMEM16A (TMEM16Aabc variant) (Homo sapiens, UniProt Q5XXA6); experiment: Automated whole-cell patch clamp (QPatch) TMEM16A potentiator assay in FRT cells stably expressing human TMEM16A; assay type: cell-based; conditions: for QPatch TMEM16A % Potentiation @ 370 nM: 370 nM test compound; for QPatch TMEM16A % Potentiation @ 370 nM / QPatch TMEM16A % Potentation @ 3.3 μM: percentage increase of baseline TMEM16A current; for QPatch TMEM16A % Potentation @ 3.3 μM: 3.3 μM test compound
T1 construct: human TMEM16A (TMEM16Aabc variant)
T1 sequence (Q5XXA6 1-986): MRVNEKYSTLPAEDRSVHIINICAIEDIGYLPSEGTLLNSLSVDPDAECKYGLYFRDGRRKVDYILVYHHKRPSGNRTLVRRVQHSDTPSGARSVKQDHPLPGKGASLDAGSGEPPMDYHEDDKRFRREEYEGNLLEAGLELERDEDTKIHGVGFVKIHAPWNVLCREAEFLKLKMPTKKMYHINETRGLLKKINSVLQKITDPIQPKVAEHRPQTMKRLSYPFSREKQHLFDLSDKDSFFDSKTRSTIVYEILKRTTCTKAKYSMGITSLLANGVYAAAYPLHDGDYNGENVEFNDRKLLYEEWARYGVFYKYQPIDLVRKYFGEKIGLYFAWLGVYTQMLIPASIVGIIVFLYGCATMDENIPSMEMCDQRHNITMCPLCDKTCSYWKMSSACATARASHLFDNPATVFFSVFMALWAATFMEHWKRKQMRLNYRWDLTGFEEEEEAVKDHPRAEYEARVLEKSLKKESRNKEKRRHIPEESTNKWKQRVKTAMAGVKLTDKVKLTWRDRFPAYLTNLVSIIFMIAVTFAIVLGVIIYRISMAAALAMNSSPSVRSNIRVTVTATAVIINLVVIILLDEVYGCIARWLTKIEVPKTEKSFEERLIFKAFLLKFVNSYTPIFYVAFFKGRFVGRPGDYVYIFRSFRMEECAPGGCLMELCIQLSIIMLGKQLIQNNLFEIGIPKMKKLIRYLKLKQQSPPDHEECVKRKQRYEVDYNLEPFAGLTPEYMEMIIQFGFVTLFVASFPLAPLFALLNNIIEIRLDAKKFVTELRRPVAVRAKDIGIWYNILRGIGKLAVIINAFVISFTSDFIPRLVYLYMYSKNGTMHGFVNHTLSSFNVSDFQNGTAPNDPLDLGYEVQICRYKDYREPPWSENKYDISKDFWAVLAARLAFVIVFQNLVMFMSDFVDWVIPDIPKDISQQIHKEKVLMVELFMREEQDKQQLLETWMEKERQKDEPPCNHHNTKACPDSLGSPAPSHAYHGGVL
Experimental: Fisher rat thyroid (FRT) cells stably expressing human TMEM16A (TMEM16Aabc variant; Dr Luis Galietta, Insituto Giannina, Italy) were cultured in T-75 flasks in Hams F-12 media with Coon's modification (Sigma) supplemented with 10% (v/v) foetal bovine serum, penicillin-streptomycin (10,000 U/mL/10000 μg/mL), G-418 (750 μg/mL), L-glutamine (2 mM) and sodium bicarbonate solution (7.5% v/v). At ˜90% confluence cells were harvested for experiments by detachment with a 2:1 (v/v) mixture of Detachin (BMS Biotechnology) and 0.25% (w/v) trypsin-EDTA.
FRT-TMEM16A cells were whole-cell patch clamped using an automated planar patch clamp system (Qpatch, Sophion). Briefly, once high resistance (GOhm) seals were established between the cells and the planar recording array the patch was ruptured using suction pulses to establish the whole-cell recording configuration of the patch clamp technique. The assay employed the following solutions (all reagents Sigma): Intracellular solution (mM): N-methyl-D-glucamine 130, CaCl2 18.2, MgCl2 1, HEPES 10, EGTA 10, BAPTA 20, Mg-ATP 2, pH 7.25, 325 mOsm with sucrose.
Extracellular solution (mM): N-methyl-D-glucamine 130, CaCl2 2, MgCl2 1, HEPES 10, pH 7.3, 320 mOsm with sucrose.
The intracellular solution buffers intracellular calcium at levels required to give ˜20% activation of the maximal TMEM16A mediated current (EC20 for calcium ions). Cells were voltage clamped at a holding potential of −70 mV and a combined voltage step (to +70 mV)/ramp (−90 my to +90 mV) was applied at 0.05 Hz. After a period of current stabilisation test compounds, solubilised in 100% (v/v) DMSO and subsequently diluted into extracellular solution, were applied to generate a cumulative concentration response curve. Each concentration of test compound was incubated for 5 minutes before addition of the next concentration. After the final concentration was tested a supramaximal concentration of either a known active positive modulator or the TMEM16A inhibitor, CaCCinhA01 (Del La Fuente et al, 2008) was added to define the upper and lower limits of the assay.
Compound activity was quantified by measuring the increase in current upon compound addition and expressing this as a percentage increase of baseline TMEM16A current level.
In FIG. 1, IBL equals baseline current, I[#1] equals the peak current during test compound concentration 1 incubation period and so on.
Peak TMEM16A current at +70 mV was plotted as a function of time over the assay period. Baseline current (IBL) was measured after a period of stabilisation. The increase in current for each compound addition was determined by taking the peak current during the incubation period and subtracting the current from the previous recording period and then expressing this as a percentage of the baseline current (% potentiation). For test compound concentration 1 in FIG. 1 this is: (I[#1]−IBL/IBL)×100 For each additional concentration tested the increase in current was determined by subtracting the current from the previous incubation period and normalising the baseline value—for test concentration 2 in FIG. 1 this is: (I[#2]−I[#1])/IBL)×100 The values for each test concentration were plotted as a cumulative function of concentration eg. for test concentration two this would be the sum of the peak changes measured during concentration one plus concentration two.

[2] = Microsomal stability (human microsomes); assay type: in vitro ADME; conditions: pH 7.4, 1 μM compound, 0.5 mg/mL protein, 1 mM NADPH, 37° C., read-out: Human Microsome Clint
Experimental: Microsomes (human) were obtained from Bioreclamation.
All Test and reference control compounds (raloxifene, diclofenac, terfenadine, propranolol, dextromethorphan and metoprolol) were dissolved to create a 100 μM stock (final concentrations; 91.5% Acetonitrile: 8.5% DMSO). Final test compound concentration in incubation was 1 μM (<0.1% DMSO).
Solution 1: 17.4 g potassium phosphate dibasic anhydrous (K2HPO4, 0.1 M) dissolved in 1 L deionised water. Solution 2: 13.6 g potassium phosphate monobasic anhydrous (KH2PO4, 0.1 M) dissolved in 1 L deionised water. pH7.4 with 2 mM magnesium chloride. NADPH (10 mM) is prepared in deionised water. Microsomes (all species) were removed from the −80° C. thawed at 37° C. Microsomes were diluted in assay buffer to achieve a final protein concentration of 0.5 mg/mL and 1 mM NADPH.
The following procedure was completed on a Perkin Elmer Janus robotic platform in 96 well format: The microsomal incubation plate was transferred to a heater shaker at 300 rpm and solution heated to 37° C. for 10 min pre-warm. A no co-factor control at 0 and 45 min and one replicates of each test compound was included in every assay. Microsomes were incubated at 37° C., on a shaker set at 300 rpm throughout the assay. […]

QPatch TMEM16A % Potentiation @ 370 nM [1] [%]	QPatch TMEM16A % Potentation @ 3.3 μM [1] [%]	microsomal CLint at 1 μM [2] [µL/min/mg]	EC50 ([1]; FRT-TMEM16A cells, whole-cell patch clamp, peak current at +70 mV, intracellular calcium at EC20) [nM]	EC50 compared with Compound B ([1]; indole compounds versus comparator Compound B)	maximum potentiation of TMEM16A compared with Compound B ([1]; versus comparator Compound B)	SMILES
42	64	46	–	–	–	C#CC(C)(C)NC(=O)c1cc(NC(=O)Cc2cccc3cc[nH]c23)ccn1 [Compound B, reference compound]
113	115	199	50	lower EC50 values than Compound B	improved maximum potentiation of TMEM16A	CC1(NC(=O)c2cc(NC(=O)Cc3ccc4cc[nH]c4c3)ccn2)CC(F)(F)C1 [Example 13.1, N-(3,3-Difluoro-1-methyl-cyclobutyl)-4-[[2-(1H-indol-6-yl)acetyl]amino] pyridine-2-carboxamide]

From patent US12545658B2, “Pyridine derivatives as calcium-activated chloride channel modulators” (TMEM16A LIMITED, priority 2019, dated 2026)
